Experimental data taken from patent publication US7256183B2, “Method for treating or preventing inflammatory diseases” (Inspire Pharmaceuticals, Inc., priority 2001, dated 2007).

Assays:
[1] = system: compound 48/80 ocular surface type-1 hypersensitivity; experiment: Ocular Type-1 hypersensitivity in albino rats (topical 48/80 model); assay type: in vivo; details: FIG. 1; for magnitude of reduction in vascular leakage and Evans blue extravasation, UP4U versus reference controls: rats, 48/80, 2% UP4U, 0.05% levocabastine, 0.025% ketotifen, 0.1% olopatadine eye drops
Description: The rat model of ocular immediate (Type-1) hypersensitivity using topical compound 48/80 was used for testing anti-inflammatory drugs (Feinberg and Stokes, Int. Arch. Allergy Appl. Immunol. 82(3-4): 537-8. (1987)). The effects of levocabastine, ketotifen, and olopatadine, which are three approved drugs for the use of ocular surface inflammation, particularly allergic conjunctivitis, were assessed. UP4U was investigated for its effects on mitigating the clinical signs of compound 48/80 on ocular surface type-1 hypersensitivity. Ten albino rats per group were administered compound or vehicle four times daily for 3 days and twice on the fourth day (the last administration 2 h before challenge with 48/80). Comparison was made between the test substances, the test substances vehicle, the reference substance (0.05% levocabastine eye drops—Lévophta®; 0.025% ketotifen eyedrops—Zaditor®; and 0.1% olopatadine eyedrops—Patanol™), and negative control animals (untreated and unchallenged). Eye drops were instilled into the right conjunctival sac of each animal with test substances. […] The formulated compounds or vehicle were allowed to gradually run from the top to the bottom of the ocular surface. Efficacy was evaluated by measuring edema: clinical scores and extravasation of Evans blue dye (blood-eyelids and blood-eyeballs permeability indexes). The model has been previously validated (Khosravi, et al., Inflamm. Res. 44(1): 47-54 (1995)).

[2] = system: ocular active anaphylaxis with egg albumin as an antigen; experiment: Ocular active anaphylaxis, guinea pig egg albumin model; assay type: in vivo, albino guinea pigs; details: FIG. 2; for magnitude of reduction on eyeballs, UP4U versus reference controls: guinea pigs, egg albumin, 2% UP4U, 0.05% levocabastine, 0.025% ketotifen, 0.1% olopatadine eye drops
Source text: The guinea pig model of ocular active anaphylaxis with egg albumin as an antigen, serves as a testing system for anti-inflammatory and anti-allergic drugs (Yamaji, et al., Methods Find. Exp. Clin. Pharmacol. 19(9): 637-43 (1997)). The ocular effects of compounds and vehicle control were investigated using an experimentally-induced ocular active anaphylaxis in the guinea pig. Ten albino guinea pigs per group were sensitized with an intraperitoneal injection of egg albumin, followed 14 days later with a challenge by a single ocular instillation of egg albumin. Four times daily for 3 days and twice on the fourth day (the last one 2 h before challenge), test substances were instilled into the right conjunctival sac of the animals. The immune response was induced by immunization with egg albumin, and the ocular reaction was induced by ocular instillation of egg albumin, thereby causing the release of allergy mediators and ocular edema. Efficacy was evaluated by measuring edema: clinical scores and extravasation of Evans blue dye (blood-eyelids and blood-eyeballs permeability indexes). Comparison was made between the test substances, the test substances vehicle, the reference substance (0.05% levocabastine eye drops—Lévophta®; 0.025% ketotifen eyedrops—Zaditor®; and 0.1% olopatadine eyedrops—Patanol™), and negative control animals (untreated and unchallenged). The model was previously validated (Khosravi, et al., Inflamm. Res. 44(1): 47-54 (1995)).

[3] = system: mucociliary clearance of nasal tissue; experiment: Nasal spray saccharin transport time (STT) test; assay type: in vivo, humans; details: for mean STT: pooled PAR and NR and across doses 5-80 mg/mL, single dose nasal spray, with outliers, (±SD); for STT mean (± SD): across all cohorts, NR and PAR groups pooled, without outliers (<1 minute or >30 minutes excluded)
Description: The speed with which the saccharin was transported this distance is a measure of mucociliary clearance.
Sixty subjects, 30 healthy non-rhinitic (NR) volunteers and 30 subjects with perennial allergic rhinitis (PAR), participated in a randomized, double-blind, single-center, 2-period crossover study evaluating escalating, single doses of a UP4dC nasal spray delivered as a non-preserved aqueous nasal spray. Each subject received a single dose (2 sprays in each nostril, 140 μL/spray) of UP4dC and placebo (0.9% w/v saline spray) on two treatment days in random order (crossover design). Five cohorts of 12 subjects received five concentration levels of UP4dC (5, 10, 20, 40, and 80 mg/mL) in ascending order. The STT was performed 5-minutes and 300-minutes post-dose on each treatment day on each subject (a saccharin particle was placed in the nose at 5 and 300 minutes post-dose and then time to taste was recorded).
Analyses were carried out excluding those STT values that were either too fast (<1 minute) or too slow (>30 minutes). Both of these scenarios are deemed as errors and are a likely result of the saccharin particle being inappropriately administered.

[4] = system: symptoms of perennial allergic rhinitis (PAR); experiment: Perennial allergic rhinitis symptom study with nasal spray; assay type: in vivo, humans
Source text: This example illustrates the efficacy of a U[…] nasal spray in reducing the symptoms of perennial allergic rhinitis (PAR) in humans. Patients with PAR suffer year-round from symptoms of allergic rhinitis because they are sensitized to allergens that are present in homes and the environment throughout the year, including dust mites, molds, and animal […] (dogs, cats, cockroaches, etc). Patients with PAR experience a constellation of nasal symptoms including nasal stuffiness/congestion, runny nose, post-nasal drip, sneezing and nasal itching. These symptoms were evaluated in pivotal efficacy trials as the total nasal symptom score (TNSS) as well as by evaluating each individual symptom, including the non-nasal symptoms of facial pain/pressure and cough. Patients rated each individual symptom on a scale from 0 (none) to 3 (severe) twice daily, reflecting their symptoms upon awakening (AM) and throughout the day (PM). Fifty-nine subjects with a documented history of PAR participated in a randomized, double-blind, 3-center, parallel-group study. […] Study medication was delivered twice daily as a non-preserved aqueous nasal spray as 2 sprays (100 μL in each spray) in each nostril. […] This was most notable for the 10 mg/ml U[…] group. Comparisons of pooled active versus placebo TNSS scores approached statistical significance for AM scores (p=0.139). Table 3 indicates the symptom and dose combinations that provided statistically significant reductions (p≦0.05) compared with placebo on any day during the 6-day treatment period. Conversely, significant symptom reductions in favor of placebo were observed on one day (PM sneezing, Day 2).

[5] = 5 mg/mL, 6-day treatment period
[6] = 10 mg/mL, 6-day treatment period
[7] = 40 mg/mL, 6-day treatment period

For `CN(C)CC/C=C1/c2ccccc2COc2ccc(CC(=O)O)cc21` [olopatadine, reference compound], the “magnitude of reduction in vascular leakage and Evans blue extravasation, UP4U versus reference controls” value [1] was “comparable” and the “magnitude of reduction on eyeballs, UP4U versus reference controls” value (shortened to “magnitude of reduction on eyeballs”) [2] was “comparable”.
In the case of `C[C@@H]1CN([C@H]2CC[C@](C#N)(c3ccc(F)cc3)CC2)CC[C@]1(C(=O)O)c1ccccc1` [levocabastine, reference compound], the “magnitude of reduction in vascular leakage and Evans blue extravasation, UP4U versus reference controls” value [1] is reported as “comparable” and the “magnitude of reduction on eyeballs” value [2] is reported as “comparable”.
For `CN1CCC(=C2c3ccccc3CC(=O)c3sccc32)CC1` [ketotifen, reference compound], the “magnitude of reduction in vascular leakage and Evans blue extravasation, UP4U versus reference controls” value [1] was “comparable” and the “magnitude of reduction on eyeballs” value [2] was “comparable”.
With `Nc1ccn([C@H]2C[C@H](O)[C@@H](COP(=O)(O)OP(=O)(O)OP(=O)(O)OP(=O)(O)OC[C@H]3O[C@@H](n4ccc(=O)[nH]c4=O)[C@H](O)[C@@H]3O)O2)c(=O)n1` [UP4dC, P^1-(2′-deoxycytidine 5′)-P^4-(uridine 5′-)tetraphosphate] the “mean STT” value ([3]; 5-hour (300-minute) post-dose assessment) was 9.58 (±10.30) minutes, the “mean STT” value ([3]; 5-minute post-dose assessment) was 7.04 (±6.06) minutes and the “STT mean (± SD)” value ([3]; 5 minute) was 6.89 (5.36) minutes. The “STT mean (± SD)” value ([3]; 300 minute) was 8.41 (5.79) minutes, the “time elapsed before the saccharin was tasted compared to placebo” value ([3]; UP4dC nasal spray, single dose, humans) was “shorten” and the “days with statistically significant reductions (p≦0.05) compared with placebo: Nasal blockage/stuffiness” value [4, 5] was “AM-Day 4”. For the same compound, the “days with statistically significant reductions (p≦0.05) compared with placebo: Post-nasal drip” value [4, 5] was “AM-Days 4 and 6”, the “days with statistically significant reductions (p≦0.05) compared with placebo: Nasal blockage/stuffiness” value [4, 6] was “AM-Day 5” and the “days with statistically significant reductions (p≦0.05) compared with placebo: Post-nasal drip” value [4, 6] was “AM-Days 5 and 6”. The “days with statistically significant reductions (p≦0.05) compared with placebo: Rhinorrhea” value [4, 6] was “PM-Day 5”, the “days with statistically significant reductions (p≦0.05) compared with placebo: Total Symptom Score” value [4, 6] was “AM-Days 5 and 6” and the “days with statistically significant reductions (p≦0.05) compared with placebo: Itching” value [4, 7] was “AM-Day 3”. For the same compound, the “days with statistically significant reductions (p≦0.05) compared with placebo: TNSS” value [4, 7] was “AM-Day 3”, the “days with statistically significant reductions (p≦0.05) compared with placebo: Total Symptom Score” value [4, 7] was “PM-Day 5” and the “change from the placebo run-in period in TNSS averaged over the entire 6-day treatment period” value (shortened to “change from the placebo run-in period”) ([4]; AM (0–15 scale), 5 mg/mL nasal spray twice daily) was −0.96 (2.08). The “change from the placebo run-in period” value ([4]; AM (0–15 scale), 10 mg/mL nasal spray twice daily) was −1.20 (2.00), the “change from the placebo run-in period” value ([4]; AM (0–15 scale), 40 mg/mL nasal spray twice daily) was −1.14 (2.02) and the “change from the placebo run-in period” value ([4]; AM + PM (0–30 scale), 5 mg/mL nasal spray twice daily) was −2.02 (4.31). The “change from the placebo run-in period” value ([4]; AM + PM (0–30 scale), 10 mg/mL nasal spray twice daily) was −2.59 (4.50), the “change from the placebo run-in period” value ([4]; AM + PM (0–30 scale), 40 mg/mL nasal spray twice daily) was −2.09 (3.99) and the “change from the placebo run-in period” value ([4]; PM (0–15 scale), 5 mg/mL nasal spray twice daily) was −0.94 (2.07). The “change from the placebo run-in period” value ([4]; PM (0–15 scale), 10 mg/mL nasal spray twice daily) was −1.26 (2.46), the “change from the placebo run-in period” value ([4]; PM (0–15 scale), 40 mg/mL nasal spray twice daily) was −1.01 (2.55) and the “reductions in TNSS compared with placebo for AM, PM, and AM+PM analyses” value ([4]; active treatment groups 5, 10, 40 mg/mL, not statistically significant versus placebo) was “consistently greater reductions”.
In the case of `O=c1ccn([C@@H]2O[C@H](COP(=O)(O)OP(=O)(O)OP(=O)(O)OP(=O)(O)OC[C@H]3O[C@@H](n4ccc(=O)[nH]c4=O)[C@H](O)[C@@H]3O)[C@@H](O)[C@H]2O)c(=O)[nH]1` [UP4U, P^1,P^4-di(uridine 5′-)tetraphosphate], the “vascular leakage and Evans blue extravasation on eyelids and eyeballs” value ([1]; rats treated with 48/80 on the ocular surface, 2% UP4U eye drops four times daily for 3 days and twice on the fourth day) is reported as “reduced”, the “magnitude of reduction in vascular leakage and Evans blue extravasation, UP4U versus reference controls” value [1] is reported as “comparable” and the “vascular leakage and Evans blue extravasation on eyeballs” value ([2]; guinea pigs challenged with egg albumin, 2% UP4U eye drops four times daily for 3 days and twice on the fourth day) is reported as “reduced”. The “magnitude of reduction on eyeballs” value [2] was “comparable”.
